Common to all, as to type: cell-based, human
One assay has as its system CLS1/CAF. Briefly: Drug resistance assay (MTT), CLS1/CAF. The conditions noted are these: 48 h drug treatment, CLS1 co-cultured with CAFs. The protocol:
(§1) An MTT [3-(4,5-dimethylthiazolyl-2)-2,5-diphenyltetrazolium bromide] (Sigma) assay was performed to determine cell proliferation. Briefly, CLS1/CAF and CLS1 cells were added to 96-well plates at a density of 5×10^3 cells/well. After incubating for 24 h, the cells were serum-starved overnight. The cells were then treated with different concentrations (0-50 μM) of the drugs docetaxel, cisplatin, etoposide and vinorelbine for 48 h. After 48 h, the culture medium containing 0.5 mg/ml MTT was added to each well. After 1.5 h of incubation, the medium was removed, and DMSO was added to the plates. The color intensity of the solubilized formazan was measured at 570 nm in an ELISA plate reader (Vector3; Perkin-Elmer, USA).

The test system of a further assay is CLS1. Briefly: Drug resistance assay (MTT), CLS1. Conditions: 48 h drug treatment, CLS1 after CAF removal. Here is the method:
as §1

The subject of assay [1] is lung cancer cells co-cultured with CAFs. Briefly: Image-based high-content analysis of Nanog-positive cells per colony. Here is the method: Lung CSCs or cancer cells (200 cells/well) were added to 96-well plates pre-seeded with CAFs (2000 cells/well) and were allowed to attach to the plates overnight. After different treatments, cells were processed following the immunofluorescence protocol with the Nanog (ReproCELL) (1:300) primary antibody (as the cancer stem-cell marker) and the mouse anti-human CD90 FITC-conjugated (5E10, BD Pharmingen) antibody (as the CAF marker) overnight at 4° C. Next, the primary antibodies were incubated with the TRITC-conjugated secondary antibody [goat anti-rabbit IgG (H+L) Conjugate, Invitrogen] for 2 h at room temperature. The nuclei were counterstained with the Hoechst 33342 dye (Invitrogen). To determine the background fluorescence level of the secondary antibody, each plate included control wells containing only the secondary antibody (stained with the Hoechst 33342 dye). Images of the stained cells were acquired using the automated fluorescence microscopy platform.
Image acquisition and analysis were performed as follows. Stained cells were imaged using the high-content analysis platform with a 4× objective. […] The images were analyzed using the MetaXpress® software (Molecular Devices). […] Finally, the TRITC-stained cell count and the total cell count were determined. The stemness of each colony was calculated as the ratio of Nanog-positive (TRITC-stained) cells to total cells. […]

A further assay has as its system Nanog. Briefly: RT Q-PCR analysis of the stem cell marker Nanog. Conditions: for Nanog expression in CLS1 cells treated with cytokine: IGF-II 10 ng/ml, HGF 10 ng/ml, sCD14 500 ng/ml (FIG. 4f). The protocol: The expression level of stemness-related genes and validation of the Affymetrix microarray data for CAF, CLS1/CAF and CLS1 were performed through RT Q-PCR using an ABI Prism 7900 Sequencer (Applied Biosystems).
TATA-box binding protein (TBP) and β-actin were used as internal controls. The expression levels were normalized to TBP and defined as −ΔCT=−[CTtarget−CTTBP]. The relative expression ratio was calculated as the fold change relative to the control (2^−ΔΔCT). The experiments were performed in triplicate.

For the next assay, the system named is ALDH activity. In words: ALDEFLUOR assay (flow cytometry). Conditions: CLS1/CAFs, A549, H1975 and EKVX; IGF-II 100 ng/ml (FIG. 15). Here is the method: ALDH activity of cells was measured using the ALDEFLUOR assay kit (StemCell Technologies) based on the manufacturer's protocol and a previous report. Ginestier, et al., 2007. After different treatments, the cells were suspended in the ALDEFLUOR assay buffer containing the ALDH substrate BODIPY-aminoacetaldehyde (BAAA, 1 mM per 1×10^6 cells, incubate 30 min at 37° C.). As a negative control, the cell sample was treated with diethylaminobenzaldehyde (DEAB), a specific ALDH inhibitor. Nonviable cells were identified by propidium iodide staining and analysis using the FACSAria instrument (Becton Dickinson).
Background: In flow cytometry, cells or beads pass a laser one at a time.

For another assay, the system named is CLS1 cells. Briefly: Ultra-low sphere-forming assay, CLS1. The conditions noted are these: IGF-II 10 and 100 ng/ml, 21 days (FIG. 5b). The protocol:
An ultra-low sphere-forming assay was performed as previously described (Dontu, et al., 2003) and modified as the following procedures. A single-cell suspension of lung CSCs in MCDB201 serum-free medium (Invitrogen) supplemented with 20 ng/ml EGF (Sigma) and 20 ng/ml bFGF (Invitrogen) was seeded in ultra-low adherent 24-well plates (Corning, Corning, N.Y., USA; 200 viable cells/well). The medium was supplemented with fresh growth factors twice weekly. After 3 weeks, the spheres were examined under the Axiovert 200 microscope.

Assay [2] has as its system IGF1R-p/IGF1R, AKT-p/AKT and Nanog. In words: Western blot analysis of IGF1R, AKT and Nanog. The conditions noted are these: CLS1, CL141 and CL152; IGF-II 10 or 100 ng/ml, time-dependent (FIG. 5c). Here is the method:
The detailed procedures were performed as described in Zoller, Nat Rev Cancer 11:254-267 (2011). The primary antibodies for p-IGF1R (Y1316, 6113S; 1:1000), p-AKT (D9E; 1:1000), AKT (927L; 1:1000) and Nanog (D73G4; 1:1000) were purchased from Cell Signaling Technology, Inc., and the primary antibody for IGF1R (C-20; 1:1000) was purchased from Santa Cruz. Monoclonal mouse anti-β-actin (Chemicon, Millipore; 1:5000) was used as a loading control. The membranes were then washed three times with TBST, followed by incubation with horseradish peroxidase (HRP)-conjugated secondary antibody (1:5,000) in TBST/2% skim milk. Bound antibody was detected using the Enhanced Chemiluminescence System (Santa Cruz, Calif.). Chemiluminescent signals were captured using the Fujifilm LAS 3000 system (Fujifilm, Tokyo, Japan). All experiments were performed at least three times in duplicate.

Usually IC50 stands for the concentration needed to halve the response being measured. `N.N.[Cl][Pt][Cl]` [Cisplatin]: the figures for the IC50 in the assay with CLS1/CAF and in the assay with CLS1 were 310 nM and 200 nM, respectively.
With `CC(=O)O[C@@]12CO[C@@H]1C[C@H](O)[C@@]1(C)C(=O)[C@H](O)C3=C(C)[C@@H](OC(=O)[C@H](O)[C@@H](NC(=O)OC(C)(C)C)c4ccccc4)C[C@@](O)([C@@H](OC(=O)c4ccccc4)[C@H]21)C3(C)C` [Docetaxel], the IC50 is 54.8 nM in the assay on CLS1/CAF (Homo sapiens) and 4.2 nM in the assay with CLS1 (Homo sapiens).
On to `COc1cc([C@@H]2c3cc4c(cc3[C@@H](O[C@@H]3O[C@@H]5CO[C@@H](C)O[C@H]5[C@H](O)[C@H]3O)[C@H]3COC(=O)[C@H]23)OCO4)cc(OC)c1O` [Etoposide (VP-16), Etoposide], for which the IC50 was determined as 109000 nM with CLS1/CAF (Homo sapiens) and 1060 nM with CLS1 (Homo sapiens).
With `COc1cc([C@@H]2c3cc4c(cc3[C@H](O)[C@H]3COC(=O)[C@@H]23)OCO4)cc(OC)c1OC` [PPP, picropodophyllin], the “Nanog-positive cells in each colony” value in assay [1] (A549, EKVX, CLS1, CL141 and CL152 co-cultured with CAFs, antibody 1 μg/ml, inhibitors 1 μM/ml (FIG. 6a)) is listed as “significantly inhibited”.
Take `CCC1=C[C@@H]2CN(C1)Cc1c([nH]c3ccccc13)[C@@](C(=O)OC)(c1cc3c(cc1OC)N(C)[C@H]1[C@@](O)(C(=O)OC)[C@H](OC(C)=O)[C@]4(CC)C=CCN5CC[C@]31[C@@H]54)C2` [Vinorelbine ditartrate]: the IC50 in the assay with CLS1/CAF (Homo sapiens) is 775 nM; in the assay with CLS1 (Homo sapiens), 28.5 nM.
As to “HGF: hepatocyte growth factor, cytokine added to CLS1 cells”, the “Nanog expression in CLS1 cells treated with cytokine” value with Nanog is recorded as “induced”.
Take “IGF-II: growth factor secreted by CAFs, added as cytokine to cancer cells”: the ALDEFLUOR-positive ratio result in the assay with ALDH activity was “increased”. In addition, in the assay with CLS1 cells, the “sphere numbers and size” value is listed as “enlarged”. Moreover, the “IGF1R and Akt phosphorylation and downstream Nanog expression” value in assay [2] is reported as “induced”. In assay [1] (IGF-II 10 and 100 ng/ml, CLS1 cells (FIG. 14b)), the “number of Nanog-positive cells per colony” value was “facilitated”. Further, the Nanog expression entry in the assay on Nanog (CLS1, A549, H1975 and H460 treated with IGF-II 100 ng/ml (FIG. 5a)) was “increased”. Further, in the assay with Nanog, the “Nanog expression in CLS1 cells treated with cytokine” value is recorded as “induced”.

The values above are taken from patent US10865388B2, “Method for identifying anti-cancer agents using an in vitro cell culture system that maintains cancer cell stemness” (National Taiwan University, priority 2014, dated 2020).
